Ends that are not written are not given here.
Legend:
[1] = test system: high-affinity thrombin receptor; assay: Competition for specific [125I]-alpha-thrombin binding to ME cells; set-up: species or system mouse; settings: for fold higher concentration than p508-530 required for 30% inhibition of [125I]-alpha-thrombin binding: ME cells; for Conc. at Maximal % Inhibition / Concentration Required for 30% Inhibition / Maximal % Inhibition: [125I]-alpha-thrombin (1 nM), quiescent ME cells; for Concentration Required for 30% Inhibition / Maximal % Inhibition: 23° C.; for Maximal % Inhibition: at the conc. printed below the value
Method: Specific techniques whereby the competitive binding studies were performed are set out below. Human alpha-thrombin was iodinated in the presence of benzamidine (an active-site competitive inhibitor), lactoperoxidase, and Na[^125I]. […] These iodinated preparations retained approximately 80% of their fibrinogen clotting activity. The ability of the synthetic peptides to compete for specific [^125I]-alpha-thrombin binding to fibroblasts was measured on nonproliferating, mitogenically responsive cultures in 24 well plates (Falcon) at a cell density of approximately 5×10^4 cells/cm^2 as previously described (Carney and Cunningham, Cell, 15:1341-1349 (1978)). The medium on the cells was changed to binding medium (serum-free DV medium containing 0.5% (w/v) bovine serum albumin buffered with 15 mM HEPES at pH 7.0). The cells were equilibrated at 23° C. for 30 minutes, and the medium was changed to binding medium containing [^125I]-alpha-thrombin (10 ng/ml) with the indicated concentrations of the peptides. After 2 hours at 23° C., the assay was terminated by quickly rinsing the cells four times with ice-cold PBS. The cells were dissolved in 1 ml of 0.5 N NaOH and the total radioactivity was measured using a Beckman gamma counter. Nonspecific binding was measured as the radioactivity bound to cultures after incubation in binding medium containing a 100-fold excess of unlabeled alpha-thrombin. Specific binding was calculated by subtracting nonspecific binding from total radioactivity bound to cultures. […] Scatchard analysis of the direct binding of [^125I]-labeled p508-530 indicated a KD of approximately 6×10^−8 M (data not shown). […] Various concentrations of peptides and [^125I]-alpha-thrombin (1 nM) were incubated with quiescent ME cells for […] at 23° C. Specific binding of [^125I]-alpha-thrombin was defined as described in Example 3.

fibroblast = settings: compared with fibronectin-specific peptides; cited from earlier work
ME cells = assay: [3H]-thymidine incorporation (DNA synthesis) in quiescent ME cells; format: cell-based, mouse; settings: for inhibition of alpha-thrombin stimulated DNA synthesis: 625 nM peptide, FIG. 7
Method: Primary cultures of fibroblasts were prepared from 9- to 13-day old embryos of NIH-swiss outbred mice as described by Carney and Cunningham, Cell, 15:1341-1349, (1978). NIL cells, an established strain of hamster fibroblasts, were maintained as stock cultures and subcultured every four days. All cells were grown in Dulbecco-Vogt modified Eagle's (DV) medium supplemented with 10% (v/v) bovine calf serum (CS), in a humidified atmosphere of 5% CO2 in air at 37° C. Quiescent cultures were prepared by subculturing stock cells from 100 mm dishes, using 0.05% (w/v) trypsin and 0.02% EDTA (w/v) in phosphate-buffered saline (PBS) and plating them in 24-well culture plates in DV medium supplemented with 10% (v/v) CS at 6×10^4 cells/cm^2. After allowing the cells to attach overnight, the medium was removed and the cells were rinsed with DV medium containing no serum. The cells were incubated in this serum-free medium for 48 hours before the indicated experiments. […] The effects of the synthetic peptides on DNA synthesis were determined by measuring the incorporation of methyl-[^3H]-thymidine (TdR, ICN Pharmaceuticals, Irvine, Calif.) during a 2 hour incubation generally from 22 hours after addition of peptides and/or thrombin (Stiernberg et al., J. Cell Physiol., 120:209-285 (1984)). After incubation, the cells were extracted and rinsed with ice-cold 10% (w/v) trichloroacetic acid (TCA). The acid precipitable material was dissolved overnight in 0.5 ml 0.5 N KOH at 23° C. HCl (1 N), 0.25 ml, was added and the solution was counted in 10 ml of RediSolv-HPb (Beckman Instruments, Houston, Tex.) scintillation fluid. The present inventors first tested the ability of p508-530 to stimulate DNA synthesis in non-proliferating cultures of ME or NIL cells. […] In order to explain the mechanism by which p517-520 was able to inhibit thrombin-mediated mitogenesis, the inventors measured the ability of increasing concentrations of alpha-thrombin to stimulate DNA synthesis in cultures to which a constant concentration (625 nM) of p517-520 had been added (FIG. 7). […]

NIL cells = assay: [3H]-thymidine incorporation (DNA synthesis) in quiescent NIL cells; format: cell-based, hamster; settings: for effect on alpha-thrombin stimulated DNA synthesis: quiescent NIL cells, increasing peptide concentrations, 2 and 4 nM alpha-thrombin, FIG. 6
Method: Primary cultures of fibroblasts were prepared from 9- to 13-day old embryos of NIH-swiss outbred mice as described by Carney and Cunningham, Cell, 15:1341-1349, (1978). NIL cells, an established strain of hamster fibroblasts, were maintained as stock cultures and subcultured every four days. All cells were grown in Dulbecco-Vogt modified Eagle's (DV) medium supplemented with 10% (v/v) bovine calf serum (CS), in a humidified atmosphere of 5% CO2 in air at 37° C. Quiescent cultures were prepared by subculturing stock cells from 100 mm dishes, using 0.05% (w/v) trypsin and 0.02% EDTA (w/v) in phosphate-buffered saline (PBS) and plating them in 24-well culture plates in DV medium supplemented with 10% (v/v) CS at 6×10^4 cells/cm^2. After allowing the cells to attach overnight, the medium was removed and the cells were rinsed with DV medium containing no serum. The cells were incubated in this serum-free medium for 48 hours before the indicated experiments. […] The effects of the synthetic peptides on DNA synthesis were determined by measuring the incorporation of methyl-[^3H]-thymidine (TdR, ICN Pharmaceuticals, Irvine, Calif.) during a 2 hour incubation generally from 22 hours after addition of peptides and/or thrombin (Stiernberg et al., J. Cell Physiol., 120:209-285 (1984)). After incubation, the cells were extracted and rinsed with ice-cold 10% (w/v) trichloroacetic acid (TCA). The acid precipitable material was dissolved overnight in 0.5 ml 0.5 N KOH at 23° C. HCl (1 N), 0.25 ml, was added and the solution was counted in 10 ml of RediSolv-HPb (Beckman Instruments, Houston, Tex.) scintillation fluid. The present inventors first tested the ability of p508-530 to stimulate DNA synthesis in non-proliferating cultures of ME or NIL cells. […] However, in combination with 2 nM alpha-thrombin, 0.1 uM p508-530 stimulated a 6- or greater than 2-fold increase in incorporation of [^3H]-thymidine into DNA in ME cells when compared to parallel cultures left untreated or treated with alpha-thrombin alone, respectively (FIG. 4A). A similar mitogenic stimulation was also observed in NIL hamster cells, although it required a slightly higher concentration of thrombin and peptides (FIG. 4B). […] With NIL cells, a similar correlation was observed between the mitogenic concentrations of p508-530 and the concentrations required to inhibit thrombin binding, although at higher levels than required with ME cells. […] It was predicted, therefore, that if p508-530 was generating a receptor occupancy-related signal, its addition to cells in combination with PMA should stimulate mitogenesis. […] This stimulation occurred at approximately the same concentration of peptide as that required to stimulate DNA synthesis in the presence of low concentrations of alpha-thrombin. […]

Substance | promotion of fibroblast attachment (fibroblast) | fold higher concentration than p508-530 required for 30% inhibition of [125I]-alpha-thrombin binding [1] | Conc. at Maximal % Inhibition [1] | Concentration Required for 30% Inhibition [1] | Maximal % Inhibition [1] | mitogenesis (summary statement) (NIL cells) | effect on alpha-thrombin stimulated DNA synthesis (NIL cells) | other results
Arg-Gly-Ala-Ser (RGAS; printed: Arg-Gly-Ala-Ser) [reference compound] |  |  |  |  |  |  |  | competition with [125I]-alpha-thrombin for binding ([1]; concentration of 1.3 uM): did not compete
p510-526: peptide representing 510-526 of human prothrombin (TKPDEGKRGDACEGDSG; Fragment of human prothrombin) | comparable to that induced by fibronectin-specific peptides |  |  |  |  |  |  | 
Arg-Gly-Asp-Ala (RGDA; Fragment of human prothrombin) [p517-520] | comparable to that induced by fibronectin-specific peptides | 50 fold | (2.7 uM) | 300 nM | 50% | without inducing mitogenesis | inhibited DNA synthesis | molar excess of peptide required for inhibition of alpha-thrombin stimulation (ME cells): 500-1000 fold; inhibition of alpha-thrombin stimulated DNA synthesis (ME cells; 0.8 nM alpha-thrombin): approximately 75%; inhibition of alpha-thrombin stimulated DNA synthesis (ME cells; 13.0 nM alpha-thrombin): ~35%
DACEGDSGGPFV [p519-530, peptide representing residues 519 to 530 of the B-chain region of human prothrombin] |  | 33 fold | (800 Nm) | 200 nM | 51% | retains the ability to mediate mitogenesis but to a much lesser degree than p508-530 | enhanced DNA synthesis | 
p516-522: peptide representing 516-522 of human prothrombin (KRGDACE; Fragment of human prothrombin) | comparable to that induced by fibronectin-specific peptides |  |  |  |  |  |  | 
